In ChEMBL document CHEMBL3507680, “University of Dundee, Gates Library screen for HepG2 cell viability”:

Experiment: Human HepG2 cell viability assay in 384 well format
Assay type: toxicity, cell-based
Parameters: dose 125 nL, time 70.5 hour; cytotoxicity at 70.5 h: concentration not given beside the values
Details: HepG2 cells, read-out: Inhibition

SMILES | cytotoxicity at 70.5 h [%]
c1cc(CNCc2ccnc(N3CCOCC3)c2)c2c(c1)OCCO2 | -9.77
COCC(C)NC(=O)N1CCN(S(C)(=O)=O)CC1 (stereo not drawn) | -2.46
CCc1c(O)nc(SCC(=O)Nc2ccccc2)n(C(C)CC)c1=O (stereo not drawn) | 22
CC(Cn1cccn1)NC(=O)Nc1ccc(N2CCCCC2)nc1 (stereo not drawn) | -7.26
COc1cc(C)c(NC(=O)CCn2cccc2)cc1OC | -6.6
CC(c1cccnc1)N1CCN(CCO)CC1 (stereo not drawn) | 7.45
CCC(=O)NCC(c1ccc(SC)cc1)N1CCc2sccc2C1 (stereo not drawn) | -8.32
Cc1cnn(CC2CCCN2C(=O)c2c(C)noc2C)c1 (stereo not drawn) | -11
CCn1c(CN2CCN(C(=O)C3CCC3)CC2)nc2c(F)cccc21 | 1.75
CCOCc1nnc(NCc2cccc(C)c2)o1 | -3.75
CN(C)C(=O)CN1CCc2ncnc(NC3CCC3)c2CC1 | 0.00388
Cc1nn(C)c(C)c1CC(=O)N1CCC(N(C)c2cccnn2)CC1 | 20.4
Cn1cc(C2CC(=O)NC23CCN(C(=O)c2cccnc2)CC3)cn1 (stereo not drawn) | -3.63
COc1ccc(CC(=O)N2CCC(c3nnc4n3CCC4)CC2)cc1F | -5.72
CCCc1ccc(S(=O)(=O)NC2(CC(N)=O)CCC2)cc1 | 1.66
CCc1cc(N[C@@H]2CC[C@@H](N)C2)n2nc(C)c(C)c2n1 | -7.75
COc1cccc(CNC(=O)N2CCCC(Cn3cc(CN)nn3)C2)c1 (stereo not drawn) | -5.66
O=C1CC(c2ccccc2)C2(CCN(C(=O)c3ccncc3F)CC2)N1 (stereo not drawn) | -5.44
Cc1ccsc1CN(C)C(=O)c1cc2c([nH]c1=O)CCCC2=O | -7.76
CN(Cc1nnc(-c2cccs2)o1)Cc1nc2c(s1)CCCC2 | -14.1
Cc1nc(CNC(=O)Nc2cc(F)ccc2OC(F)F)no1 | -3.38
CCOc1ccc2[nH]c(=O)c(CN3CCC(n4cnnc4)CC3)cc2c1 | -4.91
CC(C)NC(=O)CN1CCN(CC2CCOc3ccccc3C2)CC1 (stereo not drawn) | -7.34

SMILES | cytotoxicity at 70.5 h [%]
CC(C)C(=O)NC(Cc1cc(N(C)C)nc(C2CC2)n1)c1ccccc1 (stereo not drawn) | 3.43
Cc1nc(COC[C@@H]2CC[C@H]3NCC[C@H]3O2)cs1 | 38.8
c1ccc(COCC2CN(Cc3ccsc3)Cc3nccn3C2)nc1 (stereo not drawn) | -7.86
CCOC(=O)CC1CCCCN1C(=O)c1cc(C)oc1C (stereo not drawn) | 3.76
Cc1ccccc1C(O)c1ccncc1 (stereo not drawn) | -8.85
Cc1csc(CN2CC[C@H]3C[C@@H](c4nc(C)no4)O[C@@H]3C2)n1 | -7.69
Cc1ccc(-c2ccnc3cc(CC(=O)N4CCN(C)CC4)nn23)cc1 | 0.106
CCc1nc(COc2ccc(OCc3cnn(C)c3)cc2)no1 | -2.52
COCCS(=O)(=O)N(Cc1cscn1)c1ccccc1 | -5.03
CN(C)CCN1CCO[C@H]2CN(C(=O)C3CCOCC3)C[C@H]21 | -4.53
O=C(NCc1ccccc1CN1CCCC1)Nc1nncs1 | 3.29
Cc1cc(CNC(=O)Cc2cccs2)ccc1S(C)(=O)=O | 4.24
CCC(=O)Nc1cc(Br)cnc1OCC(F)(F)F | -8.98
Cc1cccc(OCC(=O)N(C)C2CCN(CC3CCOC3)CC2)c1 (stereo not drawn) | -9.11
CCCSc1nc(N)c(NC(=O)c2ccc(OC)c(OC)c2)c(=O)[nH]1 | 12
Cc1ccc(-c2nc(CN3CCCC(Cn4cncn4)C3)cs2)o1 (stereo not drawn) | 6.82
COC(=O)c1ccc(NCc2csc(C)n2)cc1Cl | -6.69
COc1cccc(-c2n[nH]cc2-c2nc(CC3CCN(C)CC3)no2)c1 | -6.75
CC(=O)Nc1cc(C2CC2)nn1-c1nc(C)c(C)c(=O)[nH]1 | 38.4
CC(C)=CCN1C(=O)[C@H]2CC[C@@H]1CN(Cc1cccnc1N)C2 | -4.57
CCSc1cccc(NCc2cccnc2)c1 | -16.6
Cc1ccccc1CSc1nc(N)cc(N2CC[C@@H](O)C2)n1 | -6.37
CC(=O)N1CCN(CCNS(=O)(=O)c2cccc(F)c2)CC1 | -0.607

SMILES | cytotoxicity at 70.5 h [%]
CCc1cc(CNC(=O)C2CCCN(C(=O)NCC(C)C)C2)[nH]n1 (stereo not drawn) | -11.9
COCC[C@]1(O)CCN(S(=O)(=O)c2ccc(C)cc2OC)C[C@H]1C | -4.64
CC(C)c1nc(C2CCCN(C(=O)Cn3ccccc3=O)C2)no1 (stereo not drawn) | -1.03
COC(=O)C1CN(CC(=O)Nc2cc(F)ccc2F)c2ccccc21 (stereo not drawn) | -7.21
Cc1ccc(CNC(C)c2cc(F)ccc2N2CCN(C)CC2)o1 (stereo not drawn) | 0.758
Cc1cn2c(n1)CCC(NC(=O)CCn1cncn1)C2 (stereo not drawn) | -8.43
CNc1cc(C)nc(-c2cc(NC)nc3[nH]ccc23)n1 | -8.84
O=C([C@H]1CCCO1)N1CC[C@H](O)[C@@H]1Cc1cccnc1 | -4.15
COc1ccc(CCNC(=O)N2CCCC(c3nncn3C)C2)cc1 (stereo not drawn) | -4.56
Cc1c(C(=O)N2CCC2(C)C)nnn1-c1cccc2cccnc12 | -3.77
Cc1cnccc1NCCNC1CCN(CC(C)C)CC1 | 2.02
N#Cc1ncn(CC(=O)Cc2c(F)cccc2Cl)n1 | -5.66
Cc1cccc(S(=O)(=O)N2Cc3nccn3CC(CN(C)C)C2)c1 (stereo not drawn) | -8.23
CC(=O)NCCNc1nccc(CCC(F)(F)F)n1 | -10.3
CC(C)NC(=O)C1CN(C(=O)CCc2ccccc2)CC12CCOCC2 (stereo not drawn) | 44.3
O=C(Nc1ccc(-c2csnn2)cc1)NC(CCO)C1CC1 (stereo not drawn) | 18
Cn1ccc(C(=O)N2CCC(Cc3cccc4cccnc34)C2)n1 (stereo not drawn) | -5.77
Cc1nc(C2(NCc3ccc(C#N)cc3F)CCCCC2)no1 | -1.37
Cc1ccc(-c2cc(C3CCNCC3)nc(C)n2)cc1 | -6.7
CCc1nc(CN(C)Cc2nc(-c3ccccc3Cl)oc2C)no1 | -14.3
CCOCC(=O)N1C[C@@H]2CC[C@H](Oc3ccccc3)[C@@H]2C1 | -3.41
N#Cc1cccc(CN2CCN(C(=O)C3CCC3)[C@@H]3CS(=O)(=O)C[C@@H]32)c1 | -4.15
Cc1oc(C(C)C)cc1C(=O)N1C[C@H]2CC[C@@H]1CN(S(=O)(=O)N(C)C)C2 | -7.52

SMILES | cytotoxicity at 70.5 h [%]
CCN1CCC[C@@H]1CNC(=O)c1cc(COc2ccccc2)[nH]n1 | -1.42
CCOCCCNC(=O)CN(c1cccc(F)c1)S(C)(=O)=O | -21.2
CN1CCc2nnc(C3CCCN3S(=O)(=O)c3ccc(F)cc3)n2CC1 (stereo not drawn) | -3.97
Cc1nnc(CN(C)CC(=O)NCCc2ccc(F)cc2)n1C | -5.46
O=C(C1CC1)N1CCCC1c1nnc2n1CCCCC2 (stereo not drawn) | 0.772
Cc1nc2c(N(C)Cc3ccnn3C)nc(N)nc2n1C | 0.962
Cn1nccc1CN1CCCC(COc2ccccc2F)C1 (stereo not drawn) | -4.6
COc1ccccc1CC1CCCN(C(=O)c2cc[nH]n2)C1 (stereo not drawn) | -6.57
Cc1ccc(N2CCCC(NCc3ccc(C)o3)C2)nn1 (stereo not drawn) | -7.71
COc1ccccc1-c1csc(-c2cccc(C(=O)O)c2)n1 | -4.2
Cc1ccc(CN2CCc3ncnc(-c4cccnc4)c3CC2)o1 | -5.88
COc1ccc(CN2CCOC[C@H](OCC(=O)N(C)C)C2)cc1 | -1.39
O=C(Cn1nnn(-c2cccs2)c1=O)N(CC1CCOC1)C1CC1 (stereo not drawn) | -9.03
CC(C)c1nn(C)c(N(C)C)c1CNCc1ccc2c(c1)OCO2 | 2.49
Cc1ccc(CN2CCc3c(CN4CCCC4)n[nH]c3C2)s1 | -4.44
Cc1nc(C2CCCNC2)cc(N(C)CCc2cn[nH]c2)n1 (stereo not drawn) | 20.1
O=C(CC1CC1)NCc1cn2c(n1)CN(C(=O)c1cccnc1)CC2 | -7.69
Cc1ccoc1C(=O)N1CC[C@H]2O[C@@H](C)C[C@H]2C1 | -10.2
Cc1cc(NCC(=O)N(C)Cc2cccs2)c(C(N)=O)cc1F | 0.052
CN1C(=O)C[C@@H]2[C@@H]1CCN2S(=O)(=O)Cc1ccccc1 | -3.44
CCOC(=O)N1CCC(Nc2cc(CC)nc3c(C)c(C)nn23)CC1 | -4.43
O=C(CCC1CCCC1)NCCn1nc(C2CCNC2)c2cccnc21 (stereo not drawn) | -14.1
N#Cc1cc2c(=O)n(CC(O)C(F)(F)F)ccc2[nH]c1=O (stereo not drawn) | 3.74

SMILES | cytotoxicity at 70.5 h [%]
COCCN1C(=O)CC[C@@H]2[C@H]1CCN2C(=O)C1CCOCC1 | -7.67
Cn1cc(CNCC2(O)CCCCC2)c(-c2cccnc2)n1 | -4.88
O=C(NCc1ccccn1)NC1CCCN(c2ncccn2)C1 (stereo not drawn) | -9.45
CCc1nnc2n1CCN(c1nc(C)cc(N(C)C)n1)C2 | -13.4
CCO[C@@H]1C[C@H]2CN(S(=O)(=O)c3cccs3)CCN2C1 | -4.39
Cn1cnc2c1CCN(CC(=O)N(Cc1ccccc1F)C1CC1)C2 | -6.36
C[C@]1(O)CN(Cc2ncc[nH]2)CC[C@@H]1Oc1cccc(F)c1 | -1.65
COc1cc(N2CCCn3cnc(COCCO)c3C2)ncn1 | 0.488
Cc1ccc(S(=O)(=O)NCCNC(=O)c2cncnc2C)cc1 | -2.92
Cc1ccccc1C(C(=O)N1CCN(C(=O)c2ccc[nH]2)CC1)N(C)C (stereo not drawn) | -15.2
COc1ccc(CN2CCC(O)CC2)c(OC)c1 | -6.19
Cc1cc(C)cc(N2CC(c3nnc(N)s3)CC2=O)c1 (stereo not drawn) | 3.73
Cc1ccc(S(=O)(=O)N(C)c2ccsc2C(=O)NCC(C)C)cc1 | 45.4
CCc1nc(C)c([C@H]2CN(C)C[C@@H]2C(=O)Nc2ccc(OC)nc2)[nH]1 | -1.87
c1cncc(O[C@@H]2CC[C@H]3[C@H]2OCCN3C2CCCC2)c1 | 3.46
CCn1ncc(CN2CCCC(n3c(=O)oc4ccccc43)C2)c1C (stereo not drawn) | -3.68
COCc1cc(N(C)Cc2cc(C(C)(C)C)n[nH]2)ncn1 | -7.91
CCN1CCN(c2ccc(CNC(=O)c3c(C)noc3C)cn2)CC1 | 21.7
c1ccc(CN2CCc3ncnc(-c4cccnc4)c3CC2)nc1 | -7.48
CN(C(=O)c1ccco1)c1nc2c(s1)CCCC2 | -3.33
Cc1cncc(C2CCCN(C(=O)c3cnco3)C2)n1 (stereo not drawn) | -3.92
